This is an account of results in PubChem BioAssay (NCI).

Values joined by “and” are separate entries in the source; they are usually repeats but may differ in a detail not shown here. Identical values can stand only once.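 Cells were grown in 96-well plates and exposed to each compound for 48 hours at five concentrations; endpoints were interpolated linearly between bracketing concentrations, or set to the highest concentration if not reached. At the GI50, growth is halved. TGI denotes the concentration required for complete inhibition of growth.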 Some results are limits rather than exact numbers.

Test systems include COLO 205 colon; DU-145 prostate; HL-60(TB) leukemia; MCF7 breast; NCI-H23 lung; RPMI-8226 leukemia; SK-MEL-28 melanoma; SK-OV-3 ovarian; SN12C renal; U251 CNS.
Common to all, as to assay: growth of human tumour cells (NCI), 48 h

As to `COc1ccc(-c2nn(-c3cccc(Cl)c3)cc2-c2cc(-c3cccs3)no2)cc1`, the GI50 in the assay with COLO 205 colon is 3.21 µM; in the assay on DU-145 prostate, 7.08 µM; with HL-60(TB) leukemia it was 4.73 µM; in the assay on MCF7 breast, 3.53 µM; in the assay on NCI-H23 lung, 3.82 µM; in the assay with RPMI-8226 leukemia, 5.33 µM. In addition, the GI50 in the assay on SK-MEL-28 melanoma is 4.93 µM; in the assay with SK-OV-3 ovarian, 8.89 µM; with SN12C renal, 3.48 µM; with U251 CNS, 3.61 µM. For the same compound, the TGI in the assay on COLO 205 colon was found to be 7.24 µM; with DU-145 prostate, 35.8 µM; in the assay with HL-60(TB) leukemia, 38.3 µM; in the assay on MCF7 breast it was 16.9 µM; in the assay on NCI-H23 lung, 20.8 µM; in the assay on RPMI-8226 leukemia, 61.9 µM. The TGI came to 17.8 µM with SK-MEL-28 melanoma, 44.1 µM with SK-OV-3 ovarian, 18.7 µM in the assay with SN12C renal and 15.4 µM with U251 CNS.
Turning to `COC(=O)C1=C(C(=O)OC)C(C(=O)OC)C(C(=O)OC)C(C(=O)OC)(C(=O)OC)C(C(=O)OC)=C1C(=O)OC` (centres undefined), the TGI amounted to 16.8 µM with COLO 205 colon; 32.1 µM in the assay with DU-145 prostate; 4.95 µM in the assay on HL-60(TB) leukemia; 33.6 µM in the assay on MCF7 breast; 35.8 µM in the assay with NCI-H23 lung; 10.5 µM in the assay on RPMI-8226 leukemia. The TGI is 29.3 µM in the assay with SK-MEL-28 melanoma, 55.6 µM in the assay on SK-OV-3 ovarian, 27.5 µM in the assay with SN12C renal and 31 µM with U251 CNS.
As to `Cc1ccc(NCCNCC(O)CO)c2c(=O)c3ccccc3sc12` (centres undefined), the GI50 in the assay on COLO 205 colon was 1.32 µM; in the assay on DU-145 prostate it was 1.28 µM; in the assay with HL-60(TB) leukemia it was 1.62 µM; with MCF7 breast, 1.19 µM; in the assay on NCI-H23 lung, 1.73 µM; in the assay with RPMI-8226 leukemia, 2.48 µM. In addition, the GI50 is 1.69 µM with SK-MEL-28 melanoma, 1.65 µM in the assay on SK-OV-3 ovarian, 1.32 µM in the assay with SN12C renal and 1.67 µM in the assay on U251 CNS. For the same compound, the TGI with COLO 205 colon worked out at 3.02 µM; with DU-145 prostate it was 2.62 µM; with HL-60(TB) leukemia it was 3.7 µM; in the assay on MCF7 breast, 2.65 µM; in the assay with NCI-H23 lung it was 3.54 µM; with RPMI-8226 leukemia it was 6.83 µM. The TGI with SK-MEL-28 melanoma came to 3.3 µM; in the assay on SK-OV-3 ovarian, 3.86 µM; in the assay with SN12C renal, 3.19 µM; with U251 CNS, 3.51 µM.
Regarding `Cc1ccc(S(=O)c2ccc([N+](=O)[O-])c3nonc23)cc1` (centres undefined), the GI50 in the assay on COLO 205 colon is 1.9 µM; in the assay on DU-145 prostate, 7.87 µM; with HL-60(TB) leukemia, 3.09 µM; in the assay on MCF7 breast, 5.53 µM; in the assay with NCI-H23 lung it was 14.1 µM; in the assay on RPMI-8226 leukemia, 3.62 µM. The GI50 in the assay on SK-MEL-28 melanoma was 9.15 µM; in the assay on SK-OV-3 ovarian, 18.8 µM; in the assay with SN12C renal it was 15 µM; with U251 CNS, 16 µM. Also, the TGI in the assay with COLO 205 colon stood at 3.43 µM; in the assay with DU-145 prostate, 20.9 µM; with HL-60(TB) leukemia, 8.93 µM; with MCF7 breast, 21.9 µM; with NCI-H23 lung, 30.4 µM; in the assay on RPMI-8226 leukemia, 25.5 µM. Also, the TGI in the assay with SK-MEL-28 melanoma stood at 23.3 µM; with SK-OV-3 ovarian, 34.3 µM; in the assay on SN12C renal, 31.3 µM; in the assay on U251 CNS, 35 µM.
Take `O=C(Nc1cccc(Cl)c1)c1cc(Cl)ccc1O`: the GI50 with COLO 205 colon is 2.64 µM; in the assay with DU-145 prostate, 1.66 µM; in the assay with HL-60(TB) leukemia it was 0.561 µM; with MCF7 breast it was 1.75 µM; with NCI-H23 lung it was 0.486 µM; in the assay on RPMI-8226 leukemia, 0.375 µM. The GI50 in the assay on SK-MEL-28 melanoma is 0.415 µM; with SK-OV-3 ovarian it was 0.582 µM; with SN12C renal, 0.491 µM; in the assay on U251 CNS, 0.841 µM. For the same compound, the TGI is 6.71 µM in the assay with COLO 205 colon; greater than 54.1 µM in the assay on DU-145 prostate; 3.6 µM with HL-60(TB) leukemia; greater than 26.6 µM with MCF7 breast; 3.55 µM with NCI-H23 lung; 2.18 µM in the assay with RPMI-8226 leukemia. Besides, the TGI in the assay with SK-MEL-28 melanoma is 3.77 µM; in the assay with SK-OV-3 ovarian, 2.81 µM; with SN12C renal it was 4.15 µM; in the assay on U251 CNS, greater than 38.2 µM.
For the compound `Oc1cccc(-c2nc(N3CCOCC3)c3oc4ncccc4c3n2)c1`, the GI50 with COLO 205 colon was 10.5 µM and 17.8 µM; in the assay on DU-145 prostate it was 0.188 µM and 0.161 µM; with HL-60(TB) leukemia, 0.117 µM and 0.364 µM; with MCF7 breast it was 0.27 µM and 0.18 µM; in the assay on NCI-H23 lung it was 0.269 µM and 0.292 µM; in the assay on RPMI-8226 leukemia, 0.237 µM and 0.298 µM. In addition, the GI50 with SK-MEL-28 melanoma was 0.152 µM and 0.0882 µM; with SK-OV-3 ovarian it was 0.0912 µM and 0.0819 µM; in the assay with SN12C renal, 0.0923 µM and 0.136 µM; in the assay with U251 CNS it was 0.346 µM and 0.384 µM. Moreover, the TGI with COLO 205 colon was 41.7 µM and > 72 µM; in the assay on DU-145 prostate, greater than 100 µM; with MCF7 breast, > 100 µM and 11.9 µM; in the assay with NCI-H23 lung it was > 100 µM and 31.4 µM; in the assay on RPMI-8226 leukemia, greater than 38.3 µM; in the assay with SK-MEL-28 melanoma it was 2.22 µM. In addition, the TGI in the assay on SK-OV-3 ovarian is 0.606 µM and 0.393 µM; with SN12C renal, greater than 100 µM; with U251 CNS it was > 44.5 µM and 10.9 µM.
On to `COc1cc(/C=C2\C(=O)Nc3ccc(Br)cc32)cc(OC)c1OC`, for which the GI50 with COLO 205 colon was 8.18 µM; in the assay with DU-145 prostate, 18.7 µM; in the assay with HL-60(TB) leukemia, 4.36 µM; with MCF7 breast it was 2.64 µM; in the assay on NCI-H23 lung, 8.07 µM; with RPMI-8226 leukemia it was 1.31 µM. Further, the GI50 in the assay on SK-MEL-28 melanoma is 58.9 µM; in the assay on SK-OV-3 ovarian, 24 µM; in the assay on SN12C renal, greater than 93.8 µM; in the assay on U251 CNS it was 7.19 µM. Moreover, the TGI is greater than 100 µM with COLO 205 colon; greater than 100 µM in the assay on DU-145 prostate; greater than 100 µM in the assay with HL-60(TB) leukemia; greater than 100 µM in the assay on MCF7 breast; 66 µM in the assay with NCI-H23 lung; greater than 41.8 µM in the assay on RPMI-8226 leukemia. For the same compound, the TGI in the assay on SK-MEL-28 melanoma is greater than 100 µM; with SK-OV-3 ovarian, greater than 56.1 µM; in the assay with SN12C renal, greater than 100 µM; with U251 CNS it was 30 µM.
Turning to `Cc1cc(C)c2nccc(NCCCN(C)C)c2c1[N+](=O)[O-]`, the TGI in the assay on COLO 205 colon is 28.5 µM; in the assay with DU-145 prostate, greater than 100 µM; in the assay on HL-60(TB) leukemia it was 78.1 µM; in the assay on MCF7 breast it was greater than 100 µM; in the assay with NCI-H23 lung, 37.2 µM; in the assay on RPMI-8226 leukemia it was greater than 100 µM. In addition, the TGI with SK-MEL-28 melanoma was 37 µM; in the assay with SK-OV-3 ovarian, greater than 100 µM; in the assay on SN12C renal, greater than 100 µM; with U251 CNS it was greater than 100 µM.
Consider `CC(C)(C)OC(=O)n1c(Cl)c(C(=O)N=C=S)c2ccccc21`, for which the GI50 in the assay on COLO 205 colon is 33.6 µM; with DU-145 prostate, 36 µM; in the assay on HL-60(TB) leukemia, 24.4 µM; in the assay on MCF7 breast it was 37.2 µM; in the assay on NCI-H23 lung it was 28.4 µM; with RPMI-8226 leukemia, 24.4 µM. Also, the GI50 with SK-MEL-28 melanoma is 80.7 µM; in the assay with SK-OV-3 ovarian it was greater than 100 µM; in the assay with SN12C renal, 67.1 µM; in the assay on U251 CNS, 34.2 µM. Besides, the TGI in the assay with COLO 205 colon is greater than 100 µM; in the assay on DU-145 prostate, greater than 100 µM; in the assay with HL-60(TB) leukemia, greater than 100 µM; with MCF7 breast, greater than 100 µM; in the assay on NCI-H23 lung, greater than 100 µM; in the assay on RPMI-8226 leukemia it was 87.4 µM. Also, the TGI in the assay with SK-MEL-28 melanoma, in the assay with SK-OV-3 ovarian, in the assay with SN12C renal and in the assay with U251 CNS was greater than 100 µM each time.
For the compound `N#Cc1c(-c2ccc(Cl)cc2)csc1NC(=O)Nc1cccc(C(F)(F)F)c1`, the GI50 in the assay on COLO 205 colon was 1.91 µM; in the assay with DU-145 prostate, 3.21 µM; in the assay with HL-60(TB) leukemia it was 2.43 µM; in the assay with MCF7 breast, 3.04 µM; in the assay with NCI-H23 lung, 1.99 µM; with RPMI-8226 leukemia it was 1.84 µM. The GI50 with SK-MEL-28 melanoma is 2.65 µM; in the assay on SK-OV-3 ovarian, 2.54 µM; in the assay with SN12C renal it was 2.93 µM; in the assay with U251 CNS, 2.09 µM. Further, the TGI stood at 3.88 µM in the assay with COLO 205 colon; 13.9 µM with DU-145 prostate; 6.69 µM with HL-60(TB) leukemia; 9.97 µM in the assay on MCF7 breast; 5.33 µM in the assay on NCI-H23 lung; 7 µM in the assay on RPMI-8226 leukemia. Moreover, the TGI with SK-MEL-28 melanoma came to 8.97 µM; in the assay with SK-OV-3 ovarian, 6.89 µM; in the assay on SN12C renal, 10.7 µM; with U251 CNS, 5.46 µM.
For `O=C(/C(=N/Nc1cn[nH]c(=O)c1Cl)c1ccccc1)c1ccccc1`, the TGI with COLO 205 colon is 49.4 µM; with DU-145 prostate it was 54.3 µM; in the assay on HL-60(TB) leukemia, greater than 100 µM; with MCF7 breast it was greater than 100 µM; in the assay on NCI-H23 lung, 66.6 µM; in the assay with RPMI-8226 leukemia it was 60.7 µM. The TGI in the assay on SK-MEL-28 melanoma, in the assay on SK-OV-3 ovarian, with SN12C renal and in the assay on U251 CNS was greater than 100 µM in each case.
On to `COc1ccc(CNC(=O)c2ccc(-c3cc(-c4nnc(C)o4)ccc3C)cc2)cc1`, for which the GI50 in the assay with COLO 205 colon is greater than 22.9 µM; with DU-145 prostate, greater than 25 µM; in the assay with HL-60(TB) leukemia, greater than 18.5 µM; in the assay on MCF7 breast it was 9.86 µM; in the assay on NCI-H23 lung, 17.4 µM; in the assay with RPMI-8226 leukemia, 12.6 µM. The GI50 with SK-MEL-28 melanoma, with SK-OV-3 ovarian, in the assay with SN12C renal and with U251 CNS was greater than 25 µM in each case. For the same compound, the TGI in the assay on COLO 205 colon, with DU-145 prostate, in the assay with HL-60(TB) leukemia, in the assay on MCF7 breast, in the assay with NCI-H23 lung and in the assay on RPMI-8226 leukemia was greater than 25 µM throughout. Besides, the TGI in the assay on SK-MEL-28 melanoma, with SK-OV-3 ovarian, in the assay with SN12C renal and in the assay on U251 CNS was greater than 25 µM in each case.
